Measurements as given in patent US20050085413A1, “Dimeric pharmaceutical compounds and their use” (priority 2001, published 2005).
In brackets after ≈: the same amount, converted by molar mass.

Legend:
[1] = tested on: A/Victoria/3/75 BVLV017 (H3N2); assay: Plaque reduction assay (PRA) in MDCK cells; assay type: cell-based, influenza virus; details: Influenza A virus, H3N2, MDCK, plaque numbers reduced by 50%, read-out: EC50 ng/ml PRA A/Vic
[2] = tested on: A/New Caledonia/20/99 BVLV008 (H1N1); assay: Plaque reduction assay (PRA) in MDCK cells; assay type: cell-based, influenza virus; details: Influenza A virus, H1N1, MDCK, plaque numbers reduced by 50%, read-out: EC50 ng/ml PRA A/New
[3] = tested on: A/Panama/2007/99 BVLV008 (H3N2); assay: Plaque reduction assay (PRA) in MDCK cells; assay type: cell-based, influenza virus; details: Influenza A virus, H3N2, MDCK, plaque numbers reduced by 50%, read-out: EC50 ng/ml PRA A/Pan
B/Hong Kong/5/72 BVLV012 = assay: Plaque reduction assay (PRA) in MDCK cells; assay type: cell-based, influenza virus; details: MDCK, read-out: EC50 ng/ml PRA B/HongK
[4] = tested on: B/Yamanashi/166/98 BVLV007; assay: Plaque reduction assay (PRA) in MDCK cells; assay type: cell-based, influenza virus; details: unidentified influenza virus, MDCK, read-out: EC50 ng/ml PRA B/Yam, B/Yamanashi/166/98 BVLV007; plaque numbers reduced by 50%
[5] = tested on: Enterococcus faecalis ATCC 29212; assay: Kirby-Bauer disk test, zones of inhibition; assay type: cell-based; details: 30 μg/disk; for zone of inhibition at 30 µg/disc: Enterococcus faecalis, ATCC29212, read-out: diameter of zone of inhibition, Enterococcus faecalis ATCC 29212
Protocol: (§1) Antibiotic activities were determined using a standard Kirby-Bauer* test and are reported as diameters (in mm) of zones of inhibition for test strains. All compounds were spotted at 30 μg/disk.

[6] = tested on: Escherichia coli ATTCC 25922; assay: Kirby-Bauer disk test, zones of inhibition; assay type: cell-based; details: 30 μg/disk; for zone of inhibition at 30 µg/disc: Escherichia coli, ATTCC25922, read-out: diameter of zone of inhibition, Escherichia coli ATTCC 25922
Protocol: as §1

[7] = tested on: Pseudomonas aeuruginosa ATCC 27853; assay: Kirby-Bauer disk test, zones of inhibition; assay type: cell-based; details: 30 μg/disk; for zone of inhibition at 30 µg/disc: Pseudomonas, ATCC27853, read-out: diameter of zone of inhibition, Pseudomonas aeuruginosa ATCC 27853
Protocol: as §1

[8] = tested on: Staphylococcus aureus ATCC 29213; assay: Kirby-Bauer disk test, zones of inhibition; assay type: cell-based; details: 30 μg/disk; for zone of inhibition at 30 µg/disc: Staphylococcus aureus, ATCC29213, read-out: diameter of zone of inhibition, Staphylococcus aureus ATCC 29213
Protocol: as §1

[9] = in vivo
Protocol: Rodents were anaesthetised with Ketamine/Domitor mixture according to standard procedures and dosed with compound of interest by the intra-nasal route at a dose volume of approximately 3.0 ml/kg. The rodent is held in the vertical position during dosing of 30 μL per nostril. At different time points, for example, 2, 8, 24, 48 and 168 hours post-dose, levels of compound in the lung tissue are assessed by analytical methods. Any analytical method suitable for detection of this type of compound may be used. The time at which levels of compound fall below the sensitivity of the analytical techniques identified will determine the residency time of the compound in lung tissue.

Work on `NC12CC3CC(CC(C3)C1)C2` [Amantadine] yielded an EC50 [1] of 220 ng/mL (≈ 1.45 µM), an EC50 [2] of 11 ng/mL (≈ 0.0727 µM) and an EC50 [3] of 157 ng/mL (≈ 1.04 µM). For the same compound, the EC50 (B/Hong Kong/5/72 BVLV012) was over 10000 ng/mL and the EC50 [4] was 2060 ng/mL (≈ 13.6 µM).

In the case of `NCC[C@H](O)C(=O)N[C@@H]1C[C@H](N)[C@@H](O[C@H]2O[C@H](CN)[C@@H](O)[C@H](O)[C@H]2O)[C@H](O)[C@H]1O[C@H]1O[C@H](CO)[C@@H](O)[C@H](N)[C@H]1O` [Amikacin, reference compound], the zone of inhibition at 30 µg/disc [5] is reported as 6.7 mm, the zone of inhibition at 30 µg/disc [6] is reported as 18.5 mm and the zone of inhibition at 30 µg/disc [7] is reported as 18.4 mm. For the same compound, the zone of inhibition at 30 µg/disc [8] was 18.2 mm.

`NCC1OC(OC2C(N)CC(N)C(OC3OC(COC(=O)NCCCCCCCCCCCCNC(=O)OCC4OC(OC5C(N)CC(N)C(OC6OC(CN)C(O)CC6N)C5O)C(O)C(N)C4O)C(O)C(N)C3O)C2O)C(N)CC1O` (centres unmarked) [Compound 1] showed a zone of inhibition at 30 µg/disc [5] of 6 mm, a zone of inhibition at 30 µg/disc [6] of 7 mm and a zone of inhibition at 30 µg/disc [7] of 6.3 mm. For the same compound, the zone of inhibition at 30 µg/disc [8] was 8.9 mm.

`NCC1OC(OC2C(N)CC(N)C(OC3OC(CN)C(O)C(N)C3O)C2O)C(N)CC1O` (centres unmarked) [Compound 2] gave a zone of inhibition at 30 µg/disc [5] of 6.3 mm, a zone of inhibition at 30 µg/disc [6] of 6.3 mm and a zone of inhibition at 30 µg/disc [7] of 12.8 mm. It also gave a zone of inhibition at 30 µg/disc [8] of 18.2 mm.

Work on `NCC1OC(OC2C(N)CC(N)C(OC3OC(COC(=O)Nc4ccc(Cc5ccc(NC(=O)OCC6OC(OC7C(N)CC(N)C(OC8OC(CN)C(O)CC8N)C7O)C(O)C(N)C6O)cc5)cc4)C(O)C(N)C3O)C2O)C(N)CC1O` (centres unmarked) [Compound 4] yielded a zone of inhibition at 30 µg/disc [5] of 6 mm, a zone of inhibition at 30 µg/disc [6] of 7.9 mm and a zone of inhibition at 30 µg/disc [7] of 9.2 mm. It also gave a zone of inhibition at 30 µg/disc [8] of 9.3 mm.

Work on `NCC1OC(OC2C(N)CC(N)C(OC3OC(CN4CCNCC4)C(O)C(N)C3O)C2O)C(N)CC1O` (centres unmarked) [Compound 5] yielded a zone of inhibition at 30 µg/disc [5] of 7.4 mm, a zone of inhibition at 30 µg/disc [6] of 10.5 mm and a zone of inhibition at 30 µg/disc [7] of 13.8 mm. The zone of inhibition at 30 µg/disc [8] was 18.6 mm and the “nmole retained per gram of mouse lung after 7 days” value (“nmole retained per gram” for short) [9] was 0.8 nmole per gram.

`NCC1OC(OC2C(N)CC(N)C(OC3OC(CN4CCN(C(=O)CCCCCCCCCCCCCC(=O)N5CCCN(CC6OC(OC7C(N)CC(N)C(OC8OC(CN)C(O)CC8N)C7O)C(O)C(N)C6O)C5)CC4)C(O)C(N)C3O)C2O)C(N)CC1O` (centres unmarked) [Compound 7] gave a zone of inhibition at 30 µg/disc [5] of 6.2 mm, a zone of inhibition at 30 µg/disc [6] of 6.5 mm and a zone of inhibition at 30 µg/disc [7] of 8.9 mm.

Work on `NCC1OC(OC2C(N)CC(N)C(OC3OC(CN4CCN(C(=O)c5ccccc5-c5ccccc5C(=O)N5CCN(CC6OC(OC7C(N)CC(N)C(OC8OC(CN)C(O)CC8N)C7O)C(O)C(N)C6O)CC5)CC4)C(O)C(N)C3O)C2O)C(N)CC1O` (centres unmarked) [Compound 8] yielded a zone of inhibition at 30 µg/disc [5] of 6.2 mm, a zone of inhibition at 30 µg/disc [6] of 11.4 mm and a zone of inhibition at 30 µg/disc [7] of 12.1 mm. For the same compound, the “nmole retained per gram” value [9] was 4.6 nmole per gram.

`NCC1OC(OC2C(N)CC(N)C(OC3OC(CNC(=O)Nc4ccc(Cc5ccc(NC(=O)NCC6OC(OC7C(N)CC(N)C(OC8OC(CN)C(O)CC8N)C7O)C(O)C(N)C6O)cc5)cc4)C(O)C(N)C3O)C2O)C(N)CC1O` (centres unmarked) [Compound 13] showed a zone of inhibition at 30 µg/disc [5] of 6.5 mm, a zone of inhibition at 30 µg/disc [6] of 7.1 mm and a zone of inhibition at 30 µg/disc [7] of 8.9 mm. The zone of inhibition at 30 µg/disc [8] was 8.6 mm.

`NCC1OC(OC2C(N)CC(N)C(OC3OC(CN4CCN(C(=O)Nc5ccc(Cc6ccc(NC(=O)N7CCN(CC8OC(OC9C(N)CC(N)C(OC%10OC(CN)C(O)CC%10N)C9O)C(O)C(N)C8O)CC7)cc6)cc5)CC4)C(O)C(N)C3O)C2O)C(N)CC1O` (centres unmarked) [Compound 15] gave a zone of inhibition at 30 µg/disc [5] of 6.2 mm, a zone of inhibition at 30 µg/disc [6] of 7.7 mm and a zone of inhibition at 30 µg/disc [7] of 9 mm.

`Cc1cc(C)c(NC(=O)N2CCN(CC3OC(OC4C(N)CC(N)C(OC5OC(CN)C(O)CC5N)C4O)C(O)C(N)C3O)CC2)c(C)c1NC(=O)N1CCN(CC2OC(OC3C(N)CC(N)C(OC4OC(CN)C(O)CC4N)C3O)C(O)C(N)C2O)CC1` (centres unmarked) [Compound 16] gave a zone of inhibition at 30 µg/disc [5] of 6.2 mm, a zone of inhibition at 30 µg/disc [6] of 6.5 mm and a zone of inhibition at 30 µg/disc [7] of 10.1 mm. For the same compound, the “nmole retained per gram” value [9] was 2.8 nmole per gram.

With `NCC1OC(OC2C(N)CC(N)C(OC3OC(CN4CCN(Cc5cccc(CN6CCN(CC7OC(OC8C(N)CC(N)C(OC9OC(CN)C(O)CC9N)C8O)C(O)C(N)C7O)CC6)c5)CC4)C(O)C(N)C3O)C2O)C(N)CC1O` (centres unmarked) [Compound 17] the zone of inhibition at 30 µg/disc [5] was 6.2 mm, the zone of inhibition at 30 µg/disc [6] was 6.5 mm and the zone of inhibition at 30 µg/disc [7] was 8.5 mm.

Compound `NC1CC(O)C(CNC(=O)NCCCCCCCCCCCCNC(=O)NCC2OC(OC3C(N)CC(N)C(OC4OC(CO)C(O)C(N)C4O)C3O)C(N)CC2O)OC1OC1C(N)CC(N)C(OC2OC(CO)C(O)C(N)C2O)C1O` (centres unmarked) [Compound 18] has a zone of inhibition at 30 µg/disc [5] of 6.2 mm, a zone of inhibition at 30 µg/disc [6] of 7.6 mm and a zone of inhibition at 30 µg/disc [7] of 10.4 mm. The “nmole retained per gram” value [9] was 6.6 nmole per gram.

Compound `NCC1OC(OC2C(N)CC(N)C(OC3OC(CN4CCN(C(=O)Nc5ccc(NC(=O)N6CCN(CC7OC(OC8C(N)CC(N)C(OC9OC(CN)C(O)CC9N)C8O)C(O)C(N)C7O)CC6)cc5)CC4)C(O)C(N)C3O)C2O)C(N)CC1O` (centres unmarked) [Compound 19] has a zone of inhibition at 30 µg/disc [5] of 6.2 mm, a zone of inhibition at 30 µg/disc [6] of 12.1 mm and a zone of inhibition at 30 µg/disc [7] of 12.8 mm.

Compound `NCC1OC(OC2C(N)CC(N)C(OC3OC(CN4CCN(CCCCCCCCCCCCN5CCN(CC6OC(OC7C(N)CC(N)C(OC8OC(CN)C(O)CC8N)C7O)C(O)C(N)C6O)CC5)CC4)C(O)C(N)C3O)C2O)C(N)CC1O` (centres unmarked) [Compound 20] has a zone of inhibition at 30 µg/disc [5] of 6.2 mm, a zone of inhibition at 30 µg/disc [6] of 7.8 mm and a zone of inhibition at 30 µg/disc [7] of 7.5 mm.

In the case of `NCC1OC(OC2C(N)CC(N)C(OC3OC(CNCCCCNC(=O)Nc4ccc(Cc5ccc(NC(=O)NCCCCNCC6OC(OC7C(N)CC(N)C(OC8OC(CN)C(O)CC8N)C7O)C(O)C(N)C6O)cc5)cc4)C(O)C(N)C3O)C2O)C(N)CC1O` (centres unmarked) [Compound 22], the zone of inhibition at 30 µg/disc [7] is reported as 6 mm.

`NCC1OC(OC2C(N)CC(N)C(OC3OC(CN4CCN(C(=O)CCC(=O)N5CCN(CC6OC(OC7C(N)CC(N)C(OC8OC(CN)C(O)CC8N)C7O)C(O)C(N)C6O)CC5)CC4)C(O)C(N)C3O)C2O)C(N)CC1O` (centres unmarked) [Compound 25] gave a zone of inhibition at 30 µg/disc [7] of 6 mm.

For `NC[C@H]1O[C@H](O[C@H]2[C@H](O)[C@@H](O[C@H]3O[C@H](CO)[C@@H](O)[C@H](N)[C@H]3O)[C@H](N)C[C@@H]2N)[C@H](O)[C@@H](O)[C@@H]1O` [Kanamycin A, reference compound], the “diameter of zone of inhibition, Enterococcus faecalis ATCC 29212” value [5] was 6.7 mm, the “diameter of zone of inhibition, Escherichia coli ATTCC 25922” value [6] was 18.2 mm and the “diameter of zone of inhibition, Pseudomonas aeuruginosa ATCC 27853” value [7] was 6.2 mm. For the same compound, the “diameter of zone of inhibition, Staphylococcus aureus ATCC 29213” value [8] was 19.1 mm.

For `CCOC(=O)C1=C[C@@H](OC(CC)CC)[C@H](NC(C)=O)[C@@H](N)C1` [Oseltamivir], the EC50 [1] was 0.11 ng/mL (≈ 0.000352 µM), the EC50 [2] was 0.23 ng/mL (≈ 0.000736 µM) and the EC50 [3] was 0.3 ng/mL (≈ 0.00096 µM). The EC50 (B/Hong Kong/5/72 BVLV012) was 32 ng/mL (≈ 0.102 µM) and the EC50 [4] was 0.7 ng/mL (≈ 0.00224 µM).

`NC[C@H]1O[C@H](O[C@H]2[C@H](O)[C@@H](O[C@H]3O[C@H](CO)[C@@H](O)[C@H](N)[C@H]3O)[C@H](N)C[C@@H]2N)[C@H](N)C[C@@H]1O` [Tobramycin, reference compound] showed a zone of inhibition at 30 µg/disc [5] of 15.7 mm, a zone of inhibition at 30 µg/disc [6] of 18.4 mm and a zone of inhibition at 30 µg/disc [7] of 24.9 mm. The zone of inhibition at 30 µg/disc [8] was 26.7 mm and the “nmole retained per gram” value [9] was 2.1 nmole per gram.

In the case of Neomycin [reference compound], the “diameter of zone of inhibition, Enterococcus faecalis ATCC 29212” value [5] is reported as 6.7 mm, the “diameter of zone of inhibition, Escherichia coli ATTCC 25922” value [6] is reported as 14.4 mm and the “diameter of zone of inhibition, Pseudomonas aeuruginosa ATCC 27853” value [7] is reported as 7.1 mm. For the same compound, the “diameter of zone of inhibition, Staphylococcus aureus ATCC 29213” value [8] was 16.8 mm.
